# According to paper PMC6934184, “Selective DNA-PKcs inhibition extends the therapeutic index of localized radiotherapy and chemotherapy” (The Journal of Clinical Investigation, 2019):
# Target: T1, MYLK2 (skMLCK) (Homo sapiens, UniProt Q9H1R3)
# T1 construct: purchased Thermo Fisher Scientific (Life Technologies) SelectScreen
# Assay: SelectScreen Z'LYTE
# Format: biochemical
# How it was run: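 SelectScreen broad panel; activity (Z'LYTE, Adapta) plus binding formats. ATP: Km app for CSF1R Z'LYTE; 10 for CAMK1 Adapta. Readout = % per kinase.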
# T1 sequence (Q9H1R3 whole entry): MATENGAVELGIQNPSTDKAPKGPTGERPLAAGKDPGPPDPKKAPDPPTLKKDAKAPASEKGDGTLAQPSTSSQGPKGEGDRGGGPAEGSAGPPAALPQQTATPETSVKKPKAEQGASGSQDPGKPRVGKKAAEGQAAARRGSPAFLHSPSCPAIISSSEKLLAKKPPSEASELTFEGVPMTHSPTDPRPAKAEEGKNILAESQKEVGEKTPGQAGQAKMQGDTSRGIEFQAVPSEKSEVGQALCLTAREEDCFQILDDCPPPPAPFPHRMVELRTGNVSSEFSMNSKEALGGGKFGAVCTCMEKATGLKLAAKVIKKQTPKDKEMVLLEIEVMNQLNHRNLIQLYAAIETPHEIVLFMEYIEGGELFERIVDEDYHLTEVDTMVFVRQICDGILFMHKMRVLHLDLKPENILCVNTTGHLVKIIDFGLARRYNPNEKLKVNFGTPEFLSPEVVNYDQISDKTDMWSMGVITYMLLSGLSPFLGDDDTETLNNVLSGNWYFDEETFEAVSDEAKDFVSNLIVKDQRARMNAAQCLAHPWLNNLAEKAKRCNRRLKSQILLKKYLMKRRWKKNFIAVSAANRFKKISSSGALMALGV
smiles,measurement,value
CN(C(=O)CN1CCOCC1)c1ccc2sc3c(-c4cccc5c(=O)cc(N6CC7CCC(C6)O7)oc45)cccc3c2c1 [NU5455],inhibition at 1 µM,-2.2%
